Values belong to the compound of their own block, whether it stands above or below them.
Experiments:
Assay type in all cases: functional, cell-based
[1] = target: T1, Broad substrate specificity ATP-binding cassette transporter ABCG2 (Mus musculus, UniProt Q7TMS5); assay: TP_TRANSPORTER: transepithelial transport (basal to apical) in Bcrp1-expressing LLC-PK1 cells; details: pig
T1 sequence (Q7TMS5 whole entry): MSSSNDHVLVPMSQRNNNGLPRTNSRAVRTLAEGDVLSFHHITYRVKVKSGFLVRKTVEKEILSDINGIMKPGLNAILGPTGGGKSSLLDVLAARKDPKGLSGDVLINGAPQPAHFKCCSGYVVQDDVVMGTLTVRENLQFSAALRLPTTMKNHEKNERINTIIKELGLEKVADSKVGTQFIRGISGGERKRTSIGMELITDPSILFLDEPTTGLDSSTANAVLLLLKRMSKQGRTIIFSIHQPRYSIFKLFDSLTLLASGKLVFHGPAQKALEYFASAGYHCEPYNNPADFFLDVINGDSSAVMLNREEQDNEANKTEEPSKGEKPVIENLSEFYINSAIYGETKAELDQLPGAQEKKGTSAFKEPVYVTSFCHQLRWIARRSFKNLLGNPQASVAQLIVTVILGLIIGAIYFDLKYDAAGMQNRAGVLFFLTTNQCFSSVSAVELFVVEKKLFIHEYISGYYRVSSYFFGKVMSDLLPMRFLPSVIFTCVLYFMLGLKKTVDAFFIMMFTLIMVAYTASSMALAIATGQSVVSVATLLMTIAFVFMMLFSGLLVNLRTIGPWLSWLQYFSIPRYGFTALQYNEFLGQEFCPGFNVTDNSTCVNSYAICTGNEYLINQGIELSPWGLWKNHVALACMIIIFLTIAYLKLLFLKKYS

[2] = target: T1, Broad substrate specificity ATP-binding cassette transporter ABCG2; assay: TP_TRANSPORTER: inhibition of Topotecan transepithelial transport (basal to apical) in Bcrp1-expressing LLC-PK1 cells; details: pig
[3] = target: T1, Broad substrate specificity ATP-binding cassette transporter ABCG2; assay: TP_TRANSPORTER: inhibition of Topotecan transepithelial transport (basal to apical)(Topotecan: 10uM, GF120918:10uM) in Bcrp1-expressing LLC-PK1 cells; details: pig, llc-pk1, 10 µM

- Activity [1]: substrate [+]
Compound: CC[C@@]1(O)C(=O)OCc2c1cc1n(c2=O)Cc2cc3c(CN(C)C)c(O)ccc3nc2-1 [TOPOTECAN]

- Activity [2]: is not an inhibitor [-]
Compound: C/C=C/C[C@@H](C)C(=O)[C@H]1C(=O)N[C@@H](C(C)C)C(=O)N(C)CC(=O)N(C)[C@@H](CC(C)C)C(=O)N[C@@H](C(C)C)C(=O)N(C)[C@@H](CC(C)C)C(=O)N[C@@H](C)C(=O)N[C@H](C)C(=O)N(C)[C@@H](CC(C)C)C(=O)N(C)[C@@H](CC(C)C)C(=O)N(C)[C@@H](C(C)C)C(=O)N1C [VALSPODAR]

- Activity [3]: inhibitor [+]
Compound: COc1cc2c(cc1OC)CN(CCc1ccc(NC(=O)c3cccc4c(=O)c5cccc(OC)c5[nH]c34)cc1)CC2.Cl [ELACRIDAR HYDROCHLORIDE]

Reference: ChEMBL document CHEMBL2074260, “Role of breast cancer resistance protein in the bioavailability and fetal penetration of topotecan” (J Natl Cancer Inst, 2000)
